Test system: 349418-098-R-PDC complex spheroid viability
Assay: Anticancer human tumor 349418-098-R-PDC patient-derived lung adenocarcinoma cell line growth inhibition
Conditions: for IC50: curve of first compound; for viability, T/C: stronger effect = lower value
Summary of the method: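 Complex spheroids of tumor cells with HUVEC and human MSCs, exposed to iadademstat combined with other agents. Each agent tested in half-log steps from near clinical Cmax (else 10 microM top), DMSO ≤0.25%.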

[1] = second compound 0.1 µM, first compound 0.00316 µM
[2] = second compound 0.1 µM, first compound 0.01 µM
[3] = second compound 0.1 µM, first compound 0.0316 µM
[4] = second compound 0.1 µM, first compound 0.1 µM
[5] = second compound 0.316 µM, first compound 0.00316 µM
[6] = second compound 0.316 µM, first compound 0.01 µM
[7] = second compound 0.316 µM, first compound 0.0316 µM
[8] = second compound 0.316 µM, first compound 0.1 µM
[9] = second compound 1 µM, first compound 0.00316 µM
[10] = second compound 1 µM, first compound 0.01 µM
[11] = second compound 1 µM, first compound 0.0316 µM
[12] = second compound 1 µM, first compound 0.1 µM
[13] = second compound 3.16 µM, first compound 0.00316 µM
[14] = second compound 3.16 µM, first compound 0.01 µM
[15] = second compound 3.16 µM, first compound 0.0316 µM
[16] = second compound 3.16 µM, first compound 0.1 µM
[17] = second compound 10 µM, first compound 0.00316 µM
[18] = second compound 10 µM, first compound 0.01 µM
[19] = second compound 10 µM, first compound 0.0316 µM
[20] = second compound 10 µM, first compound 0.1 µM
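Further: spheroids exposed to agents for seven days before readout.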
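Wherever viability, T/C is given: 100% = DMSO vehicle control wells.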

SMILES: CC[C@@]1(O)C(=O)OCc2c1cc1n(c2=O)Cc2cc3c(CN(C)C)c(O)ccc3nc2-1 + NC1CCC(NC2CC2c2ccccc2)CC1
- IC50 (second compound 0.1 µM): 2.04 nM
- IC50 (second compound 0.316 µM): 1.94 nM
- IC50 (second compound 1 µM): 2.12 nM
- IC50 (second compound 3.16 µM): 2.23 nM
- IC50 (second compound 10 µM): 1.87 nM
- viability, T/C (second compound 0.1 µM, first compound 0.000316 µM): 98.8%
- viability, T/C (second compound 0.1 µM, first compound 0.001 µM): 86.5%
- viability, T/C [1]: 27.2%
- viability, T/C [2]: 8.74%
- viability, T/C [3]: 4.98%
- viability, T/C [4]: 3.65%
- viability, T/C (second compound 0.316 µM, first compound 0.000316 µM): 113%
- viability, T/C (second compound 0.316 µM, first compound 0.001 µM): 78.6%
- viability, T/C [5]: 28.8%
- viability, T/C [6]: 8.08%
- viability, T/C [7]: 5.09%
- viability, T/C [8]: 3.1%
- viability, T/C (second compound 1 µM, first compound 0.000316 µM): 98.9%
- viability, T/C (second compound 1 µM, first compound 0.001 µM): 84.8%
- viability, T/C [9]: 31.4%
- viability, T/C [10]: 8.25%
- viability, T/C [11]: 5.11%
- viability, T/C [12]: 2.94%
- viability, T/C (second compound 3.16 µM, first compound 0.000316 µM): 91.6%
- viability, T/C (second compound 3.16 µM, first compound 0.001 µM): 83.5%
- viability, T/C [13]: 35.2%
- viability, T/C [14]: 9.52%
- viability, T/C [15]: 5.25%
- viability, T/C [16]: 3.35%
- viability, T/C (second compound 10 µM, first compound 0.000316 µM): 95%
- viability, T/C (second compound 10 µM, first compound 0.001 µM): 71%
- viability, T/C [17]: 31.8%
- viability, T/C [18]: 12%
- viability, T/C [19]: 4.67%
- viability, T/C [20]: 3.15%

SMILES: COc1cc(C2c3cc4c(cc3C(OC3OC5COC(C)OC5C(O)C3O)C3COC(=O)C23)OCO4)cc(OC)c1O (stereo not given) + NC1CCC(NC2CC2c2ccccc2)CC1
- IC50 (second compound 0.1 µM): 79.5 nM
- IC50 (second compound 0.316 µM): 89.9 nM
- IC50 (second compound 1 µM): 86.5 nM
- IC50 (second compound 3.16 µM): 85.8 nM
- IC50 (second compound 10 µM): 57.1 nM
- viability, T/C (second compound 0.1 µM, first compound 0.00949 µM): 105%
- viability, T/C (second compound 0.1 µM, first compound 0.03 µM): 83.1%
- viability, T/C (second compound 0.1 µM, first compound 0.0949 µM): 44.7%
- viability, T/C (second compound 0.1 µM, first compound 0.3 µM): 14.6%
- viability, T/C (second compound 0.1 µM, first compound 0.949 µM): 6.37%
- viability, T/C (second compound 0.1 µM, first compound 3 µM): 4.96%
- viability, T/C (second compound 0.316 µM, first compound 0.00949 µM): 91.9%
- viability, T/C (second compound 0.316 µM, first compound 0.03 µM): 100%
- viability, T/C (second compound 0.316 µM, first compound 0.0949 µM): 47.7%
- viability, T/C (second compound 0.316 µM, first compound 0.3 µM): 15.1%
- viability, T/C (second compound 0.316 µM, first compound 0.949 µM): 6.33%
- viability, T/C (second compound 0.316 µM, first compound 3 µM): 5.43%
- viability, T/C (second compound 1 µM, first compound 0.00949 µM): 108%
- viability, T/C (second compound 1 µM, first compound 0.03 µM): 91.5%
- viability, T/C (second compound 1 µM, first compound 0.0949 µM): 45.6%
- viability, T/C (second compound 1 µM, first compound 0.3 µM): 16%
- viability, T/C (second compound 1 µM, first compound 0.949 µM): 6.74%
- viability, T/C (second compound 1 µM, first compound 3 µM): 5.14%
- viability, T/C (second compound 3.16 µM, first compound 0.00949 µM): 106%
- viability, T/C (second compound 3.16 µM, first compound 0.03 µM): 86.4%
- viability, T/C (second compound 3.16 µM, first compound 0.0949 µM): 47.6%
- viability, T/C (second compound 3.16 µM, first compound 0.3 µM): 14.2%
- viability, T/C (second compound 3.16 µM, first compound 0.949 µM): 6.91%
- viability, T/C (second compound 3.16 µM, first compound 3 µM): 5.13%
- viability, T/C (second compound 10 µM, first compound 0.00949 µM): 89.6%
- viability, T/C (second compound 10 µM, first compound 0.03 µM): 67%
- viability, T/C (second compound 10 µM, first compound 0.0949 µM): 37.2%
- viability, T/C (second compound 10 µM, first compound 0.3 µM): 13.8%
- viability, T/C (second compound 10 µM, first compound 0.949 µM): 6.9%
- viability, T/C (second compound 10 µM, first compound 3 µM): 5.24%

SMILES: Nc1ncn(C2CC(O)C(CO)O2)c(=O)n1 (stereo not given) + NC1CCC(NC2CC2c2ccccc2)CC1
- IC50 (second compound 0.1 µM): 24.8 nM
- IC50 (second compound 0.316 µM): 46.5 nM
- IC50 (second compound 1 µM): 27.4 nM
- IC50 (second compound 3.16 µM): 19.4 nM
- IC50 (second compound 10 µM): 11.1 nM
- viability, T/C [1]: 78%
- viability, T/C [2]: 75.6%
- viability, T/C [3]: 43%
- viability, T/C [4]: 28.6%
- viability, T/C (second compound 0.1 µM, first compound 0.316 µM): 26.1%
- viability, T/C (second compound 0.1 µM, first compound 1 µM): 24.2%
- viability, T/C [5]: 72.8%
- viability, T/C [6]: 75.7%
- viability, T/C [7]: 55.2%
- viability, T/C [8]: 36.7%
- viability, T/C (second compound 0.316 µM, first compound 0.316 µM): 25%
- viability, T/C (second compound 0.316 µM, first compound 1 µM): 22.7%
- viability, T/C [9]: 89.5%
- viability, T/C [10]: 73.5%
- viability, T/C [11]: 46%
- viability, T/C [12]: 31.4%
- viability, T/C (second compound 1 µM, first compound 0.316 µM): 27.8%
- viability, T/C (second compound 1 µM, first compound 1 µM): 23.3%
- viability, T/C [13]: 83.2%
- viability, T/C [14]: 56.7%
- viability, T/C [15]: 45.3%
- viability, T/C [16]: 34%
- viability, T/C (second compound 3.16 µM, first compound 0.316 µM): 23.7%
- viability, T/C (second compound 3.16 µM, first compound 1 µM): 21.9%
- viability, T/C [17]: 80.9%
- viability, T/C [18]: 50.5%
- viability, T/C [19]: 36%
- viability, T/C [20]: 27.5%
- viability, T/C (second compound 10 µM, first compound 0.316 µM): 23.3%
- viability, T/C (second compound 10 µM, first compound 1 µM): 20.4%

Source: PubChem BioAssay AID1918936 (Molecular Pharmacology Branch, DTP, NCI, 2023)
